Publication PMC6515519, “Structure–Activity Relationships of the Tetrapeptide Ac-His-Arg-(pI)DPhe-Tic-NH2 at the Mouse Melanocortin Receptors: Modification at the (pI)DPhe Position Leads to mMC3R Versus mMC4R Selective Ligands” (Molecules, 2019)
Entries after “also recorded” stand apart in the source; their conditions may differ. Where two headings read alike, the source gives them in different places. Non-standard residues stand in square brackets, D forms with d. Residues, ends and D or L forms follow the SMILES beside them. dPhe(4-tBu) = CC(C)(C)c1ccc(C[C@@H](N)C(=O)O)cc1; dPhe(3,4-Cl2) = N[C@H](Cc1ccc(Cl)c(Cl)c1)C(=O)O; dPhe(4-CF3) = N[C@H](Cc1ccc(C(F)(F)F)cc1)C(=O)O; dPhe(4-CN) = N#Cc1ccc(C[C@@H](N)C(=O)O)cc1; dBip = N[C@H](Cc1ccc(-c2ccccc2)cc1)C(=O)O; dPhe(4-Br) = N[C@H](Cc1ccc(Br)cc1)C(=O)O; dPhe(4-Me) = Cc1ccc(C[C@@H](N)C(=O)O)cc1; dPhe(4-F) = N[C@H](Cc1ccc(F)cc1)C(=O)O; Tic = O=C(O)[C@@H]1Cc2ccccc2CN1

Legend:
mMC1R = biological target: T1, mMC1R (Mus musculus, UniProt Q01727); assay: AlphaScreen cAMP assay, agonist pharmacology in HEK293 cells stably expressing mMC1R; type: cell-based; details: for EC50: AlphaScreen cAMP, HEK293, mean ± SEM, at least three experiments; for potency increase at the mMC1R relative to Ac-His-DPhe-Arg-Trp-NH2: compared with KNS2-153; for decreased agonist potency at the mMC1R compared to KNS2-22-4: ratio of EC50 to KNS2-22-4
T1 construct: expressed in transfected cells
Protocol: (§1) Peptides were synthesized manually with microwave irradiation using standard Fmoc synthesis techniques and purified using semi-preparative reverse-phase high-pressure liquid-chromatography (RP-HPLC). […] Agonist pharmacology was measured at the mMC3R, mMC4R, and mMC5R using a colorimetric β-galactosidase assay that measures cAMP production. Agonist pharmacology was assessed at the mMC1R using the Amplified Luminescent Proximity Homogenous Assay Screen (AlphaScreen, PerkinElmer), as previously described. The MC2R is only stimulated by ACTH, and was not examined in this study. For both assays, HEK293 cells stably expressing the mMCRs were used.
Peptide ligands were dissolved in DMSO at stock concentrations of 10^−2 M. To assess the pharmacological activity of the tetrapeptides at the mMC1R, HEK293 cells stably expressing the mMC1R were stimulated with the ligands using the cAMP AlphaScreen assay (PerkinElmer) according to the manufacturer’s instruction and as previously described.
Cells were dislodged with Versene (Gibco) at 37 °C, and 10,000 cells/well were plated in a 384-well plate (Optiplate) with freshly made stimulation buffer (Hank’s Balanced Salt Solution (HBSS, 1×), 0.5 mM 3-isobutyl-1-methylxanthine (IBMX), 5 mM HEPES, and 0.1% bovine serum albumin (BSA), pH = 7.4) with 0.5 μg anti-cAMP acceptor beads per well.
Plates were incubated for an additional 2 h in the dark. Post incubation, the plates were read by an EnSpire plate reader (PerkinElmer, Waltham, MA, USA).
(§2) The EC50 and pA2 values represent the mean of duplicate replicates performed in at least three independent experiments. The EC50 and pA2 values and their associated standard errors (SEM) were determined by fitting the data to a nonlinear least-squares analysis using the PRISM program (v4.0, GraphPad Inc., San Diego, CA, USA). The ligands were assayed as TFA salt and not corrected for peptide content.

mMC5R = biological target: T2, mMC5R (Mus musculus, UniProt P41149); assay: β-galactosidase cAMP reporter assay, agonist pharmacology in HEK293 cells stably expressing mMC5R; type: cell-based; details: for EC50: β-galactosidase cAMP, HEK293, mean ± SEM, apparent EC50 for partial agonists; for decreased agonist potency at the mMC5R compared to KNS2-22-4: ratio of EC50 to KNS2-22-4
T2 construct: expressed in transfected cells
Protocol: as §1
(§3) The peptide ligands were assessed for pharmacological activity at the mMC3R, mMC4R, and mMC5R using a β-galactosidase assay. Briefly, HEK293 cells stably expressing the MC3R, MC4R, or MC5R were plated into a 10 cm dish and grown to 40% confluency. The HEK293 cells were transfected with 4 µg of CRE/β-galactosidase using the calcium-phosphate method, as previously described. Cells (5000 to 15,000) were plated on collagen-treated Nunclon Delta Surface 96-well plates (Thermo Fisher Scientific) and incubated at 37 °C with 5% CO2. […] Plates were stored at −80 °C for up to two weeks.
(§4) Thawed plates were assessed for protein content and assayed for β-galactosidase activity. Relative protein concentration was determined by adding 10 µL of cell lysate to 200 µL of a 1:5 dilution of Bio Rad G250 protein dye in a 96-well plate.
as §2

mMC4R [1] = biological target: T3, mMC4R (Mus musculus, UniProt P56450); assay: β-galactosidase cAMP reporter assay, agonist pharmacology in HEK293 cells stably expressing mMC4R; type: cell-based; details: for mMC4R percent maximal stimulation relative to NDP-MSH (partial agonist): relative to maximal NDP-MSH signal; for mMC4R agonist activity: full agonist = >90% of maximal NDP-MSH signal, inactive = <20% at 100 µM
T3 construct: expressed in transfected cells
Protocol: as §1, §3, §4, §2

mMC3R = biological target: T4, mMC3R (Mus musculus, UniProt P33033); assay: β-galactosidase cAMP reporter assay, agonist pharmacology in HEK293 cells stably expressing mMC3R; type: cell-based; details: for EC50: β-galactosidase cAMP, HEK293, mean ± SEM, apparent EC50 for partial agonists; for agonist selectivity for the mMC3R over the mMC4R: mMC3R versus mMC4R agonist potency; for decreased agonist potency at the mMC3R compared to KNS2-22-4: ratio of EC50 to KNS2-22-4; for mMC3R percent maximal stimulation relative to NDP-MSH (partial agonist): relative to maximal NDP-MSH signal
T4 construct: expressed in transfected cells
Protocol: as §1, §3, §4, §2

mMC4R [2] = biological target: T3, mMC4R; assay: β-galactosidase cAMP reporter assay, antagonist Schild analysis with NDP-MSH as agonist; type: cell-based; details: for mMC4R pA2: Schild analysis, <5.5 = no antagonist potency at highest range (10,000, 5000, 1000, 500 nM); for mMC4R pA2 / mMC4R antagonist activity: agonist NDP-MSH; for mMC4R antagonist activity: Schild design, in the concentrations assayed
Protocol: as §1, §3, §4, §2

MC4R = details: partial stimulation, % efficacy of NDP-MSH; cited from earlier work

T3 sequence (P56450 whole entry): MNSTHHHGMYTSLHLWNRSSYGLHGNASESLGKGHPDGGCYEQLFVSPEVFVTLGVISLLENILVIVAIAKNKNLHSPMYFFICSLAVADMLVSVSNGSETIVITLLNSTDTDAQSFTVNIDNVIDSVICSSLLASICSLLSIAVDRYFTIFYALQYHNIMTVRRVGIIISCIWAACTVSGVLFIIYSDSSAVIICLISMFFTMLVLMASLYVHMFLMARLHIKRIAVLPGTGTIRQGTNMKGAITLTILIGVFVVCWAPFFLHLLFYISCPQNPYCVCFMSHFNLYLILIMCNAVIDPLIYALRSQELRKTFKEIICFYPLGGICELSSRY
T4 sequence (P33033 whole entry): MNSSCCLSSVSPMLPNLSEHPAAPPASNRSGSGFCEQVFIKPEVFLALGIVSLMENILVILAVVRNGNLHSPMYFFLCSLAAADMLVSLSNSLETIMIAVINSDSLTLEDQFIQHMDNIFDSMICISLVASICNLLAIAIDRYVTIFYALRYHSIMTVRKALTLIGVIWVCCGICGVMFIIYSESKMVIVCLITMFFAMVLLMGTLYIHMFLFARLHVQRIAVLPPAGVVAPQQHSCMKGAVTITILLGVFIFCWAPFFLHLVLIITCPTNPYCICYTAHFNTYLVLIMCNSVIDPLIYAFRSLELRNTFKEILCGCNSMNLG
T2 sequence (P41149 whole entry): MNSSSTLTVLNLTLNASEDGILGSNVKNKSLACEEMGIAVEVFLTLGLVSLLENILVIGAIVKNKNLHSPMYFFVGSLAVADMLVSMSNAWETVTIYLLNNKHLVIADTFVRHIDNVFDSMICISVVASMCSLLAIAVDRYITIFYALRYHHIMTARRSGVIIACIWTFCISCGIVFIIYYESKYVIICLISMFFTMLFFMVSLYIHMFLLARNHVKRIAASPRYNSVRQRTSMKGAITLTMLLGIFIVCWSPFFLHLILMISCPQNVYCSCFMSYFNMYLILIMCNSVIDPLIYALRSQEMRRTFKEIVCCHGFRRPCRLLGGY
T1 sequence (Q01727 whole entry): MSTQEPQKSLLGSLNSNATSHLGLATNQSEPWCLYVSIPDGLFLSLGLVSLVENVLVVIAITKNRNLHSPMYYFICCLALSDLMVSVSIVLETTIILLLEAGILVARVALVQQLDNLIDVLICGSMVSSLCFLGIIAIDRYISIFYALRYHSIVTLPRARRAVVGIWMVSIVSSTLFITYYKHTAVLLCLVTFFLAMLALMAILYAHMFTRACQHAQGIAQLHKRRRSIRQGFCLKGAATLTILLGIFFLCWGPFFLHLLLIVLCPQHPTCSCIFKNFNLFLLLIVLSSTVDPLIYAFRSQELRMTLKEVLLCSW

Compound	EC50 (mMC1R)	potency increase at the mMC1R relative to Ac-His-DPhe-Arg-Trp-NH2 (mMC1R)	EC50 (mMC5R)	EC50 (mMC4R [1])	mMC4R percent maximal stimulation relative to NDP-MSH (partial agonist) (mMC4R [1])	EC50 (mMC3R)	Kb (mMC4R [2])	mMC4R pA2 (mMC4R [2])	decreased agonist potency at the mMC1R compared to KNS2-22-4 (mMC1R)	decreased agonist potency at the mMC5R compared to KNS2-22-4 (mMC5R)	mMC4R agonist activity (mMC4R [1])	agonist selectivity for the mMC3R over the mMC4R (mMC3R)	decreased agonist potency at the mMC3R compared to KNS2-22-4 (mMC3R)	mMC3R percent maximal stimulation relative to NDP-MSH (partial agonist) (mMC3R)	MC4R efficacy relative to NDP-MSH (MC4R)	mMC4R antagonist activity (mMC4R [2])	Kb (mMC4R [2]; read-out: mMC4R pA2 (converted))	mMC5R agonist efficacy (mMC5R; full agonist = >90% of maximal NDP-MSH signal)	mMC5R percent maximal stimulation relative to NDP-MSH (partial agonist) (mMC5R; relative to maximal NDP-MSH signal)
CC(=O)N[C@@H](Cc1c[nH]cn1)C(=O)N[C@@H](CCCNC(=N)N)C(=O)N[C@H](Cc1ccc(Br)cc1)C(=O)N1Cc2ccccc2C[C@H]1C(N)=O [KNS2-22-3, Ac-His-Arg-(pBr)DPhe-Tic-NH2] (Ac-HR[dPhe(4-Br)][Tic]-NH2)	0.7 ± 0.3 nM	≥ 10 fold	9.7 ± 0.5 nM	290 nM	55 % NDP	90 ± 20 nM													
CC(=O)N[C@@H](Cc1c[nH]cn1)C(=O)N[C@@H](CCCNC(=N)N)C(=O)N[C@H](Cc1ccc(Cl)c(Cl)c1)C(=O)N1Cc2ccccc2C[C@H]1C(N)=O [KNS2-23-4, Ac-His-Arg-(3,4-diCl)DPhe-Tic-NH2] (Ac-HR[dPhe(3,4-Cl2)][Tic]-NH2)	5 ± 2 nM		70 ± 7 nM	> 100000 nM		400 ± 100 nM	708 nM	6.2	7 fold	14 fold	did not result in stimulation	at least 100 fold	30 fold						
CC(=O)N[C@@H](Cc1c[nH]cn1)C(=O)N[C@@H](CCCNC(=N)N)C(=O)N[C@H](Cc1ccc(C(C)(C)C)cc1)C(=O)N1Cc2ccccc2C[C@H]1C(N)=O [KNS2-23-3, Ac-His-Arg-(ptBu)DPhe-Tic-NH2] (Ac-HR[dPhe(4-tBu)][Tic]-NH2)	9 ± 3 nM		3.4 ± 0.3 nM	> 100000 nM	< 20 % NDP	13 nM	158 nM	6.8	13 fold			at least 100 fold		85 % NDP					
Ac-Val-Gln-(pI)DPhe-DTic-NH2															less than 50%				
CC(=O)N[C@@H](Cc1c[nH]cn1)C(=O)N[C@@H](CCCNC(=N)N)C(=O)N[C@H](Cc1ccc(C)cc1)C(=O)N1Cc2ccccc2C[C@H]1C(N)=O [KNS2-23-7, Ac-His-Arg-(pMe)DPhe-Tic-NH2] (Ac-HR[dPhe(4-Me)][Tic]-NH2)	1 ± 0.3 nM	≥ 10 fold	17 ± 4 nM	700 nM	50 % NDP	110 ± 20 nM							8 fold						
CC(=O)N[C@@H](Cc1c[nH]cn1)C(=O)N[C@@H](CCCNC(=N)N)C(=O)N[C@H](Cc1ccc(O)cc1)C(=O)N1Cc2ccccc2C[C@H]1C(N)=O [KNS2-23-9, Ac-His-Arg-DTyr-Tic-NH2] (Ac-HR[dY][Tic]-NH2)	40 ± 10 nM		1000 ± 500 nM	> 100000 nM		4200 nM					did not possess agonist or antagonist activity			85 % NDP		did not possess agonist or antagonist activity	> 3160 nM		
CC(=O)N[C@@H](Cc1c[nH]cn1)C(=O)N[C@@H](CCCNC(=N)N)C(=O)N[C@H](Cc1ccc(C(F)(F)F)cc1)C(=O)N1Cc2ccccc2C[C@H]1C(N)=O [KNS2-23-6, Ac-His-Arg-(pCF3)DPhe-Tic-NH2] (Ac-HR[dPhe(4-CF3)][Tic]-NH2)	5 ± 1 nM		13 ± 4 nM	600 nM	20 % NDP	90 ± 30 nM	316 nM	6.5	7 fold				7 fold						
CC(=O)N[C@@H](Cc1c[nH]cn1)C(=O)N[C@@H](CCCNC(=N)N)C(=O)N[C@H](Cc1ccccc1)C(=O)N1Cc2ccccc2C[C@H]1C(N)=O [KNS3-10, Ac-His-Arg-DPhe-Tic-NH2] (Ac-HR[dF][Tic]-NH2)	4.6 ± 0.4 nM		200 nM	3000 ± 2000 nM		900 nM			6 fold	5 fold	full agonist efficacy; also recorded: Full agonism		70 fold	85 % NDP				not a full agonist	65 % NDP
CC(=O)N[C@@H](Cc1c[nH]cn1)C(=O)N[C@@H](CCCNC(=N)N)C(=O)N[C@H](Cc1ccc(F)cc1)C(=O)N1Cc2ccccc2C[C@H]1C(N)=O [KNS2-22-2, Ac-His-Arg-(pF)DPhe-Tic-NH2] (Ac-HR[dPhe(4-F)][Tic]-NH2)	1.8 ± 0.7 nM		70 ± 40 nM	560 nM	70 % NDP	450 ± 70 nM				14 fold			30 fold						
CC(=O)N[C@@H](Cc1c[nH]cn1)C(=O)N[C@@H](CCCNC(=N)N)C(=O)N[C@H](Cc1ccc(C#N)cc1)C(=O)N1Cc2ccccc2C[C@H]1C(N)=O [KNS2-23-8, Ac-His-Arg-(pCN)DPhe-Tic-NH2] (Ac-HR[dPhe(4-CN)][Tic]-NH2)	27 ± 6 nM		500 ± 100 nM			4000 nM	> 3160 nM							75 % NDP		did not result in antagonist activity			
CC(=O)N[C@@H](Cc1c[nH]cn1)C(=O)N[C@@H](CCCNC(=N)N)C(=O)N[C@H](Cc1ccc(-c2ccccc2)cc1)C(=O)N1Cc2ccccc2C[C@H]1C(N)=O [KNS2-23-1, Ac-His-Arg-DBip-Tic-NH2] (Ac-HR[dBip][Tic]-NH2)	0.6 ± 0.1 nM	≥ 10 fold	7.6 ± 0.7 nM	1400 nM	45 % NDP	14 ± 2 nM		5.9 ± 0.2				at least 100 fold							
